# Where a name gives a salt, the structure may show the parent alone. Read-outs that look alike come from different tables or passages of the source.
# What was measured:
# [1] = target: T1, L-type calcium channel (Rattus norvegicus, UniProt P22002); assay: Competition binding of [3H]nitrendipine to membrane fragments of rat cardiac muscle; details: [3H]nitrendipine
# T1 construct: membrane fragments of rat cardiac muscle; from tissue; host or cells: rat cardiac muscle membranes
# T1 sequence (P22002 whole entry, other chains not shown, the tested form may be a part): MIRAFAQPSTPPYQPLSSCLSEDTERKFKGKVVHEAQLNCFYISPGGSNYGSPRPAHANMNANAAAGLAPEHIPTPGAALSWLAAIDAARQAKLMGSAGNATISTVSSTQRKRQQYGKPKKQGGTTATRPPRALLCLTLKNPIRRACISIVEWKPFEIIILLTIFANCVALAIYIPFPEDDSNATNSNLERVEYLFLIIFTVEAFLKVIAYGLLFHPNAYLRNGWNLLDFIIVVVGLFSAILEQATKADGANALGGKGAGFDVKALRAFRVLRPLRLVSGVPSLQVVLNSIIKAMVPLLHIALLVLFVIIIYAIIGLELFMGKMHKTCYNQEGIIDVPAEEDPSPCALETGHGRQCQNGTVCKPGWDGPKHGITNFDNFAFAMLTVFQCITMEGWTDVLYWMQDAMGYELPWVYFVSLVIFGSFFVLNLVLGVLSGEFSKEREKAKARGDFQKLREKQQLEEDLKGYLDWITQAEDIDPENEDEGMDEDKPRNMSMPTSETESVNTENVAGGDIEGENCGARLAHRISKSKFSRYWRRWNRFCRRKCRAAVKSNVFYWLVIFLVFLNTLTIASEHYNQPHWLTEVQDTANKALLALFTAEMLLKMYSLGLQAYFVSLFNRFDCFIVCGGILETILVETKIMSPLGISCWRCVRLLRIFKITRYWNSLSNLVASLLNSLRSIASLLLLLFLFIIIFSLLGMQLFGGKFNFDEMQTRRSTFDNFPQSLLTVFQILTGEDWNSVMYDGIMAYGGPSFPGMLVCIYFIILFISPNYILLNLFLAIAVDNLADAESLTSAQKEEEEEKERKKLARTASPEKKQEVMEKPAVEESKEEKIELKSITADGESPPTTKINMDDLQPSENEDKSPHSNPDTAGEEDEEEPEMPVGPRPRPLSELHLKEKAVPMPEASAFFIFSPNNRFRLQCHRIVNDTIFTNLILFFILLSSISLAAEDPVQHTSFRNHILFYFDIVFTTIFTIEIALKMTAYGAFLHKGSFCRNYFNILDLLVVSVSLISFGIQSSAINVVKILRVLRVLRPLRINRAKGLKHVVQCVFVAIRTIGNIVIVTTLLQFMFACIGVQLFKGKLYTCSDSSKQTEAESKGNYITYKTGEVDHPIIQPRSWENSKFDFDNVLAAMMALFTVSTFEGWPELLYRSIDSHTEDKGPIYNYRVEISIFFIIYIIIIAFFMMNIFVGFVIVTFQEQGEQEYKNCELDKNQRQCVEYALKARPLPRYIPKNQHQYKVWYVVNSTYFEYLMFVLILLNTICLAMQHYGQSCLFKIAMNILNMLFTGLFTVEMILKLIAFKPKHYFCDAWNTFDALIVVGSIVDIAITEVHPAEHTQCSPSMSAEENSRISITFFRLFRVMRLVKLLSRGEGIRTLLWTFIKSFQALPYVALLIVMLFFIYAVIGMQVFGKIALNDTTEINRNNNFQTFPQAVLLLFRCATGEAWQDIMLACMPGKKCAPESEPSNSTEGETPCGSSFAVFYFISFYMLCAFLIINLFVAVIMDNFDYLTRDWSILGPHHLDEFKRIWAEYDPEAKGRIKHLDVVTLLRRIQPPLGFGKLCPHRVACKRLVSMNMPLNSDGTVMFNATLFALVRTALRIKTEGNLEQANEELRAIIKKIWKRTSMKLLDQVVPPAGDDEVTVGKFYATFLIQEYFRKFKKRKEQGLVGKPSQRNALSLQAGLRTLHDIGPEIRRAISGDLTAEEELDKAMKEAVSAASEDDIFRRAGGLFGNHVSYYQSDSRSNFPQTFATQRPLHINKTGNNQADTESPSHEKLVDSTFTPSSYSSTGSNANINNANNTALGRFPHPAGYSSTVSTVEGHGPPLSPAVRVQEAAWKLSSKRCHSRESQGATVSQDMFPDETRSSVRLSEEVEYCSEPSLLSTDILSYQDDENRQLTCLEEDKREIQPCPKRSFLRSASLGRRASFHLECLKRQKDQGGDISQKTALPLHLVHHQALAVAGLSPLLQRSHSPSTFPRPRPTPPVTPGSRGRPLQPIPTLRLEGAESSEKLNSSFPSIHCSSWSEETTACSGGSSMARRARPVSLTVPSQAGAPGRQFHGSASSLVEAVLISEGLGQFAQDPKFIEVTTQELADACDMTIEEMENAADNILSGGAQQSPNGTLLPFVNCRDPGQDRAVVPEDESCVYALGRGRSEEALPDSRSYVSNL
# T1 sequence (P54290 25-944 partner limits assumed, other chains not shown): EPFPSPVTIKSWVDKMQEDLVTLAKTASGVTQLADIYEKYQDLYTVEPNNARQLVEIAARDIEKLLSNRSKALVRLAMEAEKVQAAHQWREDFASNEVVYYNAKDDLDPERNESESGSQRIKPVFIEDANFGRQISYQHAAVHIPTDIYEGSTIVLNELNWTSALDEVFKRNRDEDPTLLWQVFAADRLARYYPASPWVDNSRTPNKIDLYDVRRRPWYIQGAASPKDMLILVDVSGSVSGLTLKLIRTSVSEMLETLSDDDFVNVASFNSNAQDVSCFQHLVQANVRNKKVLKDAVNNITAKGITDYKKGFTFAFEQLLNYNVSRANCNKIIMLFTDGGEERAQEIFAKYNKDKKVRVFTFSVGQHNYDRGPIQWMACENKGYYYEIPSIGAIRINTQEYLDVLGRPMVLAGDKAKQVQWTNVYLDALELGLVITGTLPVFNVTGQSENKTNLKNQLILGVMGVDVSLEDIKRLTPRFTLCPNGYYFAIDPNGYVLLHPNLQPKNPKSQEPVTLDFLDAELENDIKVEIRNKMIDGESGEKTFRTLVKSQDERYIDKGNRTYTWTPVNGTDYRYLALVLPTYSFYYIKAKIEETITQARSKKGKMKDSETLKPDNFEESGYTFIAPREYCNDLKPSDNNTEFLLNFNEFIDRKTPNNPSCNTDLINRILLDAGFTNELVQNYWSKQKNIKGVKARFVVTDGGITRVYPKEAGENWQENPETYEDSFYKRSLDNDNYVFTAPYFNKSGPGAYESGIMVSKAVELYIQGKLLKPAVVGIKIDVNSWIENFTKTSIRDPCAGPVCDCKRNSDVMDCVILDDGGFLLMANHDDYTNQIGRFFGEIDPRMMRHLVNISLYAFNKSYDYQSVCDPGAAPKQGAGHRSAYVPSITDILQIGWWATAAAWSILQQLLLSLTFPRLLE
# T1 sequence (P54290 945-1091 partner limits assumed, other chains not shown): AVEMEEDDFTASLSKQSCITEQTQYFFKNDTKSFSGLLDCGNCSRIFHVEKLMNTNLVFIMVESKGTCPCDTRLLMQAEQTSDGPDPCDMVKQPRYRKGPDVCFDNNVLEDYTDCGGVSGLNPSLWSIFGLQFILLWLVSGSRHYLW
Compound,melting point,other results
"CCC1=C(C(=O)NN2CCOCC2)C(c2ccc([N+](=O)[O-])cc2)C(C(=O)NCCCN2CCC(c3ccccc3)(c3ccccc3)CC2)=C(COC)N1 (centres unmarked) [Example 248, 6-Ethyl-1,4-dihydro-2-((methyl)oxy)methyl-5-N-(morpholin-4yl)carboxamido-4-(4-nitro)phenyl-3-(N-(3-(4,4-diphenylpiperidin-1-yl)propyl))carboxamidopyridine]",112 °C (dec.),–
CC1=C(C(N)=O)C(c2ccc([N+](=O)[O-])cc2)C(C(=O)NC2CCN(Cc3ccccc3)CC2)=C(c2ccoc2)N1.Cl.O (centres unmarked) [Example 66],–,"pKi Ca ([1]; rat cardiac muscle membranes, SEM and n in lines below): 6.22"
"CCC1=C(C(N)=O)C(c2ccc([N+](=O)[O-])cc2)C(C(=O)NCCCN2CCC(c3ccccc3)(c3ccccc3)CC2)=C(CC)N1 (centres unmarked) [Example 120, 5-Carboxamido-2,6-diethyl-1,4-dihydro-4-(4-nitrophenyl)-3-{N-[3-(4,4-diphenylpiperidin-1-yl)propyl]} carboxamidopyridine]",–,"Ki ([1]; rat cardiac muscle membrane fragments, L-type calcium channel, read-out: pKi Ca (converted)): 1000 µM"
"COc1cc2c(cc1OC)CN(CCCNC(=O)C1=C(C)NC(C)=C(C(N)=O)C1c1ccc([N+](=O)[O-])cc1)CC2 (centres unmarked) [Example 58, 5-Carboxamido-1,4-dihydro-3-{N-[3-(1,2,3,4-tetrahydro-6,7-dimethoxyisoquinolin-2-yl)propyl]}carboxamido-2,6-dimethyl-4-(4-nitrophenyl)pyridine hydrochloride]",–,"Ki ([1]; rat cardiac muscle membranes, SEM and n in lines below, read-out: pKi Ca (converted)): 166 µM"
"COC(=O)C1(c2ccccc2)CCN(CCCNC(=O)C2=C(COCCN=[N+]=[N-])NC(C)=C(C(N)=O)C2c2ccc([N+](=O)[O-])cc2)CC1 (centres unmarked) [Example 183, 2-[(2-Azidoethoxy)methyl]-5-carboxamido-1,4-dihydro-3-{N-[3-(4-methoxycarbonyl-4-phenylpiperidin-1-yl)propyl]}carboxamido-6-methyl-4-(4-nitrophenyl)pyridine]",–,"Ki ([1]; rat cardiac muscle membranes, mean, read-out: PKi Ca (converted)): 74.1 µM"
"CCC1=C(C(N)=O)C(c2ccc([N+](=O)[O-])cc2)C(C(=O)NCCCN2CCC(C(=O)OC)(c3ccccc3)CC2)=C(CCCCN=[N+]=[N-])N1 (centres unmarked) [Example 165, 2-(4-Azidobutyl)-3-{N-[3-(4-methoxycarbonyl-4-phenylpiperidin-1-yl)propyl]}carboxamido-5-carboxamido-6-ethyl-1,4-dihydro-4-(4-nitrophenyl)pyridine]",74 to 77 °C,–
"CCC1=C(C(=O)NCCOC)C(c2ccc([N+](=O)[O-])cc2)C(C(=O)NCCCN2CCC(c3ccccc3)(c3ccccc3)CC2)=C(COC)N1 (centres unmarked) [Example 247, 6-Ethyl-1,4-dihydro-5-N-((2-methoxy)ethyl)carboxamido-2-(methyloxy)methyl-4-(4-nitro)phenyl-3-(N-(3-(4,4-diphenylpiperidin-1-yl)propyl)) carboxamidopyridine]",70 °C (dec.),–
"CC(=O)C1=C(C)NC(COCCN)=C(C(=O)NCCCN2CCC(c3ccccc3)(c3ccccc3)CC2)C1c1ccc2c(c1)OCO2 (centres unmarked) [Example 239, 5-Acetyl-2-((2-aminoethyl)oxy)methyl-1,4-dihydro-6-methyl-4-(3,4-methylenedioxy)phenyl-3-(N-(3-(4,4-dipheylpiperidin-1-yl)propyl))carboxamidopyridine]",80 °C (dec.),–
"CC(=O)C1=C(C)NC(CCCCN)=C(C(=O)NCCCN2CCC(c3ccccc3)(c3ccccc3)CC2)C1c1ccc([N+](=O)[O-])cc1 (centres unmarked) [Example 176, 5-Acetyl-2-(4-aminobutyl)-1,4-dihydro-6-methyl-4-(4-nitrophenyl)-3-{N-[3-(4,4-diphenylpiperidin-1-yl)propyl]}carboxamidopyridine]",76 to 79 °C,–
"CCC1=C(C(=O)NC)C(c2ccc([N+](=O)[O-])cc2)C(C(=O)NCCCN2CCC(C(=O)OC)(c3ccccc3)CC2)=C(CCCCOC)N1 (centres unmarked) [Example 174, 6-Ethyl-1,4-dihydro-2-(4-methoxybutyl)-3-{N-[3-(4-methoxycarbonyl-4-phenylpiperidin-1-yl)propyl]}carboxamido-5-(N-methyl)carboxamido-4-(4-nitrophenyl)pyridine]",71 to 74 °C,–
"CC(=O)C1=C(C)NC(COCCN)=C(C(=O)NCCCN2CCC(c3ccccc3)(c3ccccc3)CC2)C1c1ccc(F)cc1 (centres unmarked) [Example 242, 5-Acetyl-2-((2-aminoethyl)oxy)methyl-4-(4-fluoro)phenyl-1,4-dihydro-6-methyl-3-(N-(3-(4,4-diphenylpiperidin-1-yl)propyl))carboxamidopyridine]",75 °C (dec.),–
"CCC1=C(C(=O)NC)C(c2ccc([N+](=O)[O-])cc2)C(C(=O)NCCCN2CCC(c3ccccc3)(c3ccccc3)CC2)=C(CCCCN)N1 (centres unmarked) [Example 172, 2-(4-Aminobutyl)-6-ethyl-1,4-dihydro-5-(N-methyl)carboxamido-4-(4-nitrophenyl)-3-{N-[3-(4,4-diphenylpiperidin-1-yl)propyl]}carboxamidopyridine]",105 to 109 °C,–
"COC(=O)C1(c2ccccc2)CCN(CCCNC(=O)C2=C(CCCCN)NC(C)=C(C(C)=O)C2c2ccc([N+](=O)[O-])cc2)CC1 (centres unmarked) [Example 178, 5-Acetyl-2-(4-aminobutyl)-1,4-dihydro-3-{N-[3-(4-methoxycarbonyl-4-phenylpiperidin-1-yl)propyl]}carboxamido-6-methyl-4-(4-nitrophenyl) pyridine]",62 to 65 °C,–
"CCC1=C(C(=O)NC)C(c2ccc([N+](=O)[O-])cc2)C(C(=O)NCCCN2CCC(c3ccccc3)(c3ccccc3)CC2)=C(CCCCOC)N1 (centres unmarked) [Example 173, 6-Ethyl-1,4-dihydro-2-(4-methoxybutyl)-5-(N-methyl)carboxamido-4-(4-nitrophenyl)-3-{N-[3-(4,4-diphenylpiperidin-1-yl)propyl]}carboxamidopyridine]",98 to 102 °C,–
CCC1=C(C(=O)OCCO)C(c2ccc([N+](=O)[O-])cc2)C(C(=O)NCCCN2CCC(c3ccccc3)(c3ccccc3)CC2)=C(COC)N1 (centres unmarked) [Example 246],73 °C (dec.),–
"CCOC(=O)C1(c2ccccc2)CCN(CCCNC(=O)C2=C(COCCN)NC(CC)=C(C(=O)O)C2c2ccc([N+](=O)[O-])cc2)CC1 (centres unmarked) [Example 196, 2-[(2-Aminoethoxy)methyl]-3-{N-[3-(4-ethoxycarbonyl-4-phenylpiperidin-1-yl)propyl]}carboxamido-1,4-dihydro-6-ethyl-4-(4-nitrophenyl)pyridine-5-carboxylic Acid]",103 to 105 °C,–
"CCOC(=O)C1(c2ccccc2)CCN(CCCNC(=O)C2=C(COCCN)NC(CC)=C(C(N)=O)C2c2ccc([N+](=O)[O-])cc2)CC1 (centres unmarked) [Example 193, 2-[(2-Aminoethoxy)methyl]-5-carboxamido-3-{N-[3-(4-ethoxycarbonyl-4-phenylpiperidin-1-yl)propyl]}carboxamido-1,4-dihydro-6-ethyl-4-(4-nitrophenyl)pyridine]",87 to 89 °C,–
CCC1=C(C(N)=O)C(c2ccc([N+](=O)[O-])cc2)C(C(=O)NCCCN2CCC(C(=O)OC)(c3ccccc3)CC2)=C(CC)N1 (centres unmarked) [Example 200],112 to 114 °C,–
CNC(=O)C1=C(C)NC(C)=C(C(=O)NCCCN2CCC(c3ccccc3)(c3ccccc3)CC2)C1c1ccc2c(c1)OCCO2 (centres unmarked) [Example 163],115 to 116 °C,–
"CCNC(=O)C1=C(CC)NC(CC)=C(C(=O)NCCCN2CCC(C(=O)OC)(c3ccccc3)CC2)C1c1ccc([N+](=O)[O-])cc1 (centres unmarked) [Example 180, 2,6-Diethyl-1,4-dihydro-5-(N-ethyl)carboxamido-3-{N-[3-(4-methoxycarbonyl-4-phenylpiperidin-1-yl)propyl]}carboxamido-4-(4-nitrophenyl)pyridine]",217 °C (dec.),–
"CCOC(=O)C1(c2ccccc2)CCN(CCCNC(=O)C2=C(COCCN)NC(CC)=C(C(=O)NC)C2c2ccc([N+](=O)[O-])cc2)CC1 (centres unmarked) [Example 194, 2-[(2-Aminoethoxy)methyl]-3-{N-[3-(4-ethoxycarbonyl-4-phenylpiperidin-1-yl)propyl]}carboxamido-1,4-dihydro-6-ethyl-5-(N-methyl) carboxamido-4-(4-nitrophenyl) pyridine]",51 to 53 °C,–
"CCOC(=O)C1(c2ccccc2)CCN(CCCNC(=O)C2=C(COCCN)NC(C)=C(C(C)=O)C2c2ccc3c(c2)OCO3)CC1 (centres unmarked) [Example 244, 5-Acetyl-2-((2-aminoethyl)oxy)methyl-3-(N-(3-(4-ethoxycarbonyl-4-phenylpiperidin-1-yl)propyl)) carboxamido-1,4-dihydro-6-methyl-4-(3,4-methylenedioxy) phenylpyridine]",55 °C (dec.),–
"COC(=O)C1(c2ccccc2)CCN(CCCNC(=O)C2=C(COCCCN)NC(C)=C(C(C)=O)C2c2ccc([N+](=O)[O-])cc2)CC1 (centres unmarked) [Example 241, 5-Acetyl-2-((3-aminopropyl)oxy)methyl-1,4-dihydro-3-(N-(3-(4-methoxycarbonyl-4-phenylpiperidin-1-yl)propyl))carboxamido-6-methyl-4-(4-nitro)phenylpyridine]",70 °C (dec.),–
"CCOC(=O)C1(c2ccccc2)CCN(CCCNC(=O)C2=C(COC)NC(CC)=C(C(=O)O)C2c2ccc([N+](=O)[O-])cc2)CC1 (centres unmarked) [Example 240, 3-(N-3-(4-Ethoxycarbonyl-4-phenylpiperidin-1-yl)propyl)carboxamido-6-ethyl-1,4-dihydro-2-(methyloxy)methyl-4-(4-nitro)phenylpyridine-5-carboxylic Acid]",116 to 126 °C,–
"COC(=O)C1=C(C)NC(C)=C(C(=O)NCCCN2CCC(c3ccccc3)CC2)C1c1ccc(C)cc1 (centres unmarked) [Example 31, 1,4-Dihydro-3-methoxycarbonyl-2,6-dimethyl-4-(4-methylphenyl)-5-(N-(3-(4-phenylpiperidin-1-yl)propyl)carboxamido)pyridine]",139 to 139.5 °C,–
"CCNC(=O)C1=C(CC)NC(COCCN)=C(C(=O)NCCCN2CCC(C(=O)OCC)(c3ccccc3)CC2)C1c1ccc([N+](=O)[O-])cc1 (centres unmarked) [Example 192, 2-[(2-Aminoethoxy)methyl]-3-{N-[3-(4-ethoxycarbonyl-4-phenyl-piperidin-1-yl)propyl]}carboxamido-1,4-dihydro-6-ethyl-5-(N-ethyl)carboxamido-4-(4-nitrophenyl)pyridine]",112 to 114 °C,–

# Reference: patent US6608086B2, “Dihydropyridines and new uses thereof” (Synaptic Pharmaceutical Corporation, priority 1993, dated 2003)
